Experiment [1] has as its target T1, V₁ receptor (Rattus norvegicus, UniProt P30560).
T1 construct: Using rat liver plasma membrane preparations; from tissue; host or cells: rat liver plasma membranes
As to the kind of experiment: V₁ receptor binding assay ([³H]-Arg-vasopressin, rat liver plasma membrane preparations). To be noted: 37°C for 10 minutes. The method, then:
Using rat liver plasma membrane preparations prepared according to Ichihara's method [cf: Akira Ichihara, J. Bio. Chem., 258, 9283 (1983)], the plasma membrane (50000dpm, 2x10⁻¹⁰ M) of [³H]-Arg-vasopressin and a test compound (60 µg, 10⁻⁸-10⁻⁴ M) are incubated at 37°C for 10 minutes in 100 mM Tris-HCl buffer (pH: 8.0, 250 µl) containing 5 mM MgCl₂, 1 mM EDTA and 0.1 % BSA. After incubation, the mixture is filtered three times using the glass filter (GF/F) so as to separate the membrane preparation combined with vasopressin and then washed with the buffer (5 ml). This glass filter is taken out and mixed with liquid scintillation cocktail. The amount of [³H]-vasopressin combined with the membrane is measured by liquid scintillation counter and the rate of the inhibitory effect of the test compound is estimated according to the following equation. Rate of the inhibitory effect (%) = 100 -(C1 - B1)/(C0 - B1)X 100 [formula] C¹: The amount of [³H]-vasopressin combined with the membrane in the presence of the test compound (in prescribed amount). C⁰: The amount of [³H]-vasopressin combined with the membrane in the absence of the test compound. B¹: The amount of [³H]-vasopressin combined with the membrane in the presence of the excess amount of vasopressin (10⁻⁶ M).
The results are expressed as IC₅₀ values, which is the concentration of the test compound required to achieve the inhibitory effect in the rate of 50 %.

In experiment [2] the target is T2, V₂ receptor (Rattus norvegicus, UniProt Q00788).
T2 construct: Using rat kidney plasma membrane preparations; from tissue; host or cells: rat kidney plasma membranes
T2 sequence (Q00788 whole entry): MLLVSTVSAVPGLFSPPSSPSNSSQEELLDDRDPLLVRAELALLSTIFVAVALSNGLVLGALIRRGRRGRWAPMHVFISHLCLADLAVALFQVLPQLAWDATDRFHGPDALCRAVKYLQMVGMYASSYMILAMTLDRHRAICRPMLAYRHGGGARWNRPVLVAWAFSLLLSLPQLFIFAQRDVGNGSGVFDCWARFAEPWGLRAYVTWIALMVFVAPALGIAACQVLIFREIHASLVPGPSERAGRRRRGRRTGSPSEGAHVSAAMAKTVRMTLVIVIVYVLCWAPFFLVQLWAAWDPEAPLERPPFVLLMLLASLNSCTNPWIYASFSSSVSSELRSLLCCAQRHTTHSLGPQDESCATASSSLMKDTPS
As to the kind of experiment: V₂ receptor binding assay ([³H]-Arg-vasopressin, rat kidney plasma membrane preparations). The following applies: 4°C for 3 hours. In outline: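 Rat kidney plasma membranes incubated with [³H]-vasopressin and test compound, then filtered on GF/F glass filters and bound radioactivity counted by liquid scintillation.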

T1 sequence (P30560 whole entry): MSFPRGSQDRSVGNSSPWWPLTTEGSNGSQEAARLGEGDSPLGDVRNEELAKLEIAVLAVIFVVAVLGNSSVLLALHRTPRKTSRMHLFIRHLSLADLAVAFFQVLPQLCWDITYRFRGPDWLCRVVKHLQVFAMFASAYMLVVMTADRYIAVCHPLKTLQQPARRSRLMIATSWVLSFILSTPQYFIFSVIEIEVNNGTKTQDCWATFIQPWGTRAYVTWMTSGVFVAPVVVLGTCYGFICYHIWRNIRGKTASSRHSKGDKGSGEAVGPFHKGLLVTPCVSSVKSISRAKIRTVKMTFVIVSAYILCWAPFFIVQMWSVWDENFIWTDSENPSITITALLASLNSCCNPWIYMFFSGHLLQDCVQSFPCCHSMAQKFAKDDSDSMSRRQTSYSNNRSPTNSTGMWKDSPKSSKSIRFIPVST

As for `Cc1ccccc1C(=O)Nc1ccc(C(=O)N2CCCC(O)c3ccccc32)cc1` (stereo not shown) [compound 143], the values for the IC50 in experiment [1] and in experiment [2] were 150 nM and 8 nM, respectively.

For the molecule `O=C(Nc1ccc(C(=O)N2CCCCc3ccccc32)cc1)c1cccc([N+](=O)[O-])c1` [compound 57], the IC50 (as a rule, the concentration that inhibits the measured activity by half) in experiment [1] amounted to 460 nM; in experiment [2], 160 nM.

Turning to `CNC(=O)OC1CCCN(C(=O)c2ccc(NC(=O)c3ccccc3C)cc2)c2ccccc21` (stereo not shown) [compound 196], the IC50 in experiment [1] was 400 nM; in experiment [2], 13 nM.

Turning to `CN1CCN(CCCCCCOc2ccccc2C(=O)Nc2ccc(C(=O)N3CCCCc4ccccc43)cc2)CC1` [compound 75], the IC50 in experiment [1] is 69 nM; in experiment [2] it was 300 nM.

Turning to `Cc1ccccc1C(=O)Nc1ccc(C(=O)N2CCCC(OCC(=O)N3CCS(=O)(=O)CC3)c3ccccc32)cc1` (stereo not shown) [compound 286], the figures for the IC50 in experiment [1] and in experiment [2] were 400 nM and 19 nM, respectively.

For the molecule `Cc1cc(C(=O)N2CCCCc3ccccc32)ccc1NC(=O)c1ccccc1C` [compound 78], the IC50 is 100 nM in experiment [1] and 84 nM in experiment [2].

Regarding `CN(C)C1CCCN(C(=O)c2ccc(NC(=O)c3ccccc3Cl)cc2)c2ccc(Cl)cc21` (stereo not shown) [compound 304], the IC50 amounted to 210 nM in experiment [1] and 24 nM in experiment [2].

Take `COc1cc(C(=O)N2CCCCc3ccccc32)ccc1NC(=O)c1ccccc1` [compound 77]: the IC50 in experiment [1] was 85 nM; in experiment [2], 90 nM.

In the case of `Cc1ccccc1C(=O)Nc1ccc(C(=O)N2CCCC(NC(=O)Nc3ccccc3)c3ccccc32)cc1` (stereo not shown) [compound 280], the 50% inhibitory concentration (IC50) came to 470 nM in experiment [1] and 45 nM in experiment [2].

Take `Cc1ccccc1C(=O)Nc1ccc(C(=O)N2CCCC(OCC(=O)NCC(N)=O)c3ccccc32)cc1` (stereo not shown) [compound 285]: the IC50 turned out to be 180 nM in experiment [1] and 8 nM in experiment [2].

`Cc1ccccc1C(=O)Nc1ccc(C(=O)N2CCCC(OCCCN)c3ccccc32)cc1` (stereo not shown) [compound 173]: the IC50 turned out to be 150 nM in experiment [1] and 8 nM in experiment [2].

In the case of `Cc1ccccc1C(=O)Nc1ccc(C(=O)N2CCCC(OCC(=O)N3CC[S+]([O-])CC3)c3ccccc32)cc1` (stereo not shown) [compound 281], the IC50 is 180 nM in experiment [1] and 11 nM in experiment [2].

With `CC(=O)OCCCCOc1ccccc1C(=O)Nc1ccc(C(=O)N2CCCCc3ccccc32)cc1` [compound 117], the results for the IC50 in experiment [1] and in experiment [2] were 220 nM and 240 nM, respectively.

Take `Nc1cccc(C(=O)Nc2ccc(C(=O)N3CCCCc4ccccc43)cc2)c1` [compound 67]: the IC50 worked out at 340 nM in experiment [1] and 50 nM in experiment [2].

As for `CC(=O)OCC1CCCN(C(=O)c2ccc(NC(=O)c3ccccc3C)cc2)c2ccccc21` (stereo not shown) [compound 231], the results for the IC50 in experiment [1] and in experiment [2] were 160 nM and 7 nM, respectively.

Turning to `Cc1ccccc1C(=O)Nc1ccc(C(=O)N2CCCC(N(C)C)c3cc(Cl)ccc32)cc1` (stereo not shown) [compound 303], the IC50 in experiment [1] was found to be 190 nM; in experiment [2], 25 nM.

Turning to `CCOc1cccc(C(=O)Nc2ccc(C(=O)N3CCCCc4ccccc43)cc2)c1` [compound 59], the IC50 in experiment [1] is 310 nM; in experiment [2] it was 240 nM.

On to `C=C1CCCN(C(=O)c2ccc(NC(=O)c3ccccc3C)cc2)c2ccccc21` [compound 209], for which the IC50 amounted to 74 nM in experiment [1] and 4 nM in experiment [2].

As to `Cc1ccccc1C(=O)Nc1ccc(C(=O)N2CCCC(OCCCN3C(=O)c4ccccc4C3=O)c3ccccc32)cc1` (stereo not shown) [compound 172], the IC50 in experiment [1] is 260 nM; in experiment [2], 23 nM.

`Cc1ccccc1C(=O)Nc1ccc(C(=O)N2CCCCc3ccccc32)cc1` [compound 28]: the IC50 in experiment [1] was 56 nM; in experiment [2], 18 nM.

In the case of `Cc1ccccc1C(=O)Nc1ccc(C(=O)N2CCCC(OC(=O)CN(C)C)c3ccccc32)cc1` (stereo not shown) [compound 275], the IC50 in experiment [1] came out at 180 nM; in experiment [2] it was 18 nM.

In the case of `O=C(Nc1ccc(C(=O)N2CCC=Cc3ccccc32)cc1)c1ccccc1Cl` [compound 207], the IC50 worked out at 160 nM in experiment [1] and 45 nM in experiment [2].

On to `CN(C)C1CCCN(C(=O)c2ccc(NC(=O)CNc3ccccc3Cl)cc2)c2ccccc21` (stereo not shown) [compound 315], for which the IC50 in experiment [1] was found to be 380 nM; in experiment [2], 25 nM.

Regarding `Cc1ccccc1C(=O)Nc1ccc(C(=O)N2CCCC(OCC(=O)N3CCCC3C(N)=O)c3ccccc32)cc1` (stereo not shown) [compound 284], the IC50 in experiment [1] turned out to be 290 nM; in experiment [2] it was 19 nM.

Regarding `C#CCN(CC(=O)Nc1ccc(C(=O)N2CCCCc3ccccc32)cc1)c1ccccc1` [compound 130], the results for the IC50 in experiment [1] and in experiment [2] were 23 nM and 7 nM, respectively.

With `CC(=O)N1CCN(C(=O)COC2CCCN(C(=O)c3ccc(NC(=O)c4ccccc4C)cc3)c3ccccc32)CC1` (stereo not shown) [compound 288], the IC50 in experiment [1] worked out at 260 nM; in experiment [2], 15 nM.

For `Cc1ccccc1C(=O)Nc1ccc(C(=O)N2CCCC(CNC=O)c3ccccc32)cc1` (stereo not shown) [compound 269], the IC50 was 480 nM in experiment [1] and 3 nM in experiment [2].

Turning to `O=C(Nc1ccc(C(=O)N2CCCC(NC3CC3)c3cc(Cl)ccc32)cc1)c1ccccc1Cl` (stereo not shown) [compound 311], the IC50 in experiment [1] was 78 nM; in experiment [2], 13 nM.

As for `O=C(Nc1ccc(C(=O)N2CCCC(NCc3ccccc3)c3ccccc32)cc1)c1ccccc1Cl` (stereo not shown) [compound 252], the IC50 in experiment [1] came out at 360 nM; in experiment [2], 63 nM.

As for `COc1cccc(C(=O)Nc2ccc(C(=O)N3CCCCc4ccccc43)cc2)c1` [compound 29], the IC50 came out at 150 nM in experiment [1] and 69 nM in experiment [2].

`Cc1ccccc1C(=O)Nc1ccc(C(=O)N2CCC(=O)Cc3ccccc32)cc1` [compound 193]: the IC50 in experiment [1] came to 170 nM; in experiment [2], 36 nM.

For the molecule `NC(=O)COc1ccccc1C(=O)Nc1ccc(C(=O)N2CCCCc3ccccc32)cc1` [compound 119], the IC50 was 49 nM in experiment [1] and 59 nM in experiment [2].

Regarding `O=C(Nc1ccc(C(=O)N2CCCCc3ccccc32)cc1)c1ccccc1OCCCCCCN1CCOCC1` [compound 74], the IC50 in experiment [1] is 100 nM; in experiment [2], 510 nM.

On to `O=C(Nc1ccc(C(=O)N2CCCCc3ccccc32)cc1)c1ccccc1Br` [compound 56], for which the IC50 came out at 25 nM in experiment [1] and 37 nM in experiment [2].

For the molecule `Cc1ccccc1C(=O)Nc1ccc(C(=O)N2CCCC(CN)c3ccccc32)cc1` (stereo not shown) [compound 244], the IC50 amounted to 230 nM in experiment [1] and 18 nM in experiment [2].

In the case of `CC(=O)NCCCOC1CCCN(C(=O)c2ccc(NC(=O)c3ccccc3C)cc2)c2ccccc21` (stereo not shown) [compound 174], the IC50 in experiment [1] came out at 140 nM; in experiment [2] it was 7 nM.

For the molecule `O=C(Nc1ccc(C(=O)N2CCCCc3ccccc32)cc1)c1ccccc1` [compound 27], the IC50 was 95 nM in experiment [1] and 70 nM in experiment [2].

For the molecule `Cc1ccccc1C(=O)Nc1ccc(C(=O)N2CCC(O)Cc3ccccc32)cc1` (stereo not shown) [compound 214], the IC50 in experiment [1] is 270 nM; in experiment [2] it was 58 nM.

Take `Cc1ccccc1C(=O)Nc1ccc(C(=O)N2CCCC(OCC(=O)N(C)CCO)c3ccccc32)cc1` (stereo not shown) [compound 293]: the values for the IC50 in experiment [1] and in experiment [2] were 190 nM and 65 nM, respectively.

As to `NC(=O)COC1CCCN(C(=O)c2ccc(NC(=O)c3ccccc3Cl)cc2)c2ccccc21` (stereo not shown) [compound 164], the values for the IC50 in experiment [1] and in experiment [2] were 150 nM and 10 nM, respectively.

Consider `CCN(CC(=O)Nc1ccc(C(=O)N2CCCC(O)c3ccccc32)c(Cl)c1)c1ccccc1` (stereo not shown) [compound 222], for which the IC50 turned out to be 96 nM in experiment [1] and 10 nM in experiment [2].

The values above are taken from patent publication EP0450097B1, “BENZOHETEROCYCLIC COMPOUNDS” (OTSUKA PHARMACEUTICAL CO., LTD., priority 1989, dated 1991).
